The test system of data set [1] is HCT-116 cells (116LT, 116HT). The data set is described as follows: GCV and TMTX cytotoxicities on transduced HCT-116 cells. The format is cell-based, human. How it is done: FIGS. 7A-D show GCV sensitivty and TMTX resisatnce in parental, tranduced and TMTX exposed colon cancer cells of the HCT-116 and HCT-8 cells lines. Bulk transduction of HCT-116 and HCT-8 was carried out with an moi of 30 for 24 hours or an moi of 2.5 for 2 hours to produce cell lines 116HT and 116LT, and 8HT and 8LT, respectively. Successful gene transfer and transgene expression was confirmed by PCR and Western blotting. […] Infection of 8LT was not detectable with the assay used.
GCV amd TMTX cytotoxicities were measured on the transduced cells. […] (FIGS. 7A and C). This finding correlates with observed levels of fusion protein expression in these cells.

Data set [2] relates to HCT-8, HCT-116 and C85 colorectal cancer cells transduced with SFG-DHFR/HSV-TK. The data set is described as follows: GCV sensitivity of transduced colon cancer cells. Format: cell-based, human. How it is done:
(§1) Retrovirus-producing cell lines were generated by transfection of DHFR-HSV1-TK plasmid in parental GP+envAM12 cells. Transfection was performed three times at cell densities of 30%, 50% and 75% using Superfect (Qiagen, Chatsworth, Calif.) as described by the manufacturer. Clones of the retrovirus were selected in 150 nM TMTX. Viral titers were determined against NIH 3T3 cells. Retrovirus-producing AM12V cells were grown in medium without antifolate to a density of 60-80%; the day before infection, the mdeium was changed. Viral transduction was performed by infecting colon cancer cells plated 48 hours before infection in 10 cm dishes. Four single virus exporsures with the desired multiplicity of infection (moi), each of 6 hour duration, were carried out. For each single exposure, fresh AM12V supernatant was filtered through a 0.45 μm cellulose acetate filter and supplemented with polybrene (8 μg/ml). The 2-hour viral transduction was performedin 6 well plates.
(§2) The transduced cells were treated with varying amounts of TMTX (10, 100 and 1000 μM) and levels of fusion protein were detected by Western blotting using either an anti-HSV-TK antibody or an anti-human DHFR antibody.
Three colorectal cancer cells lines (HCT-8, HCT-116 and a cell line, C85, recently established from a patient with liver metastasis) were transduced with the SFG-DHFR/HSV-TK fusion vector of Example 1. […]

In data set [3] the test system is HCT-8 cells (8LT, 8HT, 8LT-CT). Nature of the data set: GCV and TMTX cytotoxicities on transduced HCT-8 cells. The format is cell-based, human. How it is done: Bulk transduction of HCT-116 and HCT-8 was carried out with an moi of 30 for 24 hours or an moi of 2.5 for 2 hours to produce cell lines 116HT and 116LT, and 8HT and 8LT, respectively.
GCV amd TMTX cytotoxicities were measured on the transduced cells.

Data set [4] deals with T1, DHFR-HSV1 TK fusion protein (Homo sapiens, UniProt P00374, F32S/L23F).
T1 construct: HSV1 thymidine kinase (fusion partner); expressed in transfected cells; host or cells: HCT-8, HCT-116 and C85 human colorectal cancer cells, retrovirally transduced with SFG-DHFR/HSV-TK
T1 sequence (P00374 other isoform, or with tags, fused parts or gaps L23F/F32S): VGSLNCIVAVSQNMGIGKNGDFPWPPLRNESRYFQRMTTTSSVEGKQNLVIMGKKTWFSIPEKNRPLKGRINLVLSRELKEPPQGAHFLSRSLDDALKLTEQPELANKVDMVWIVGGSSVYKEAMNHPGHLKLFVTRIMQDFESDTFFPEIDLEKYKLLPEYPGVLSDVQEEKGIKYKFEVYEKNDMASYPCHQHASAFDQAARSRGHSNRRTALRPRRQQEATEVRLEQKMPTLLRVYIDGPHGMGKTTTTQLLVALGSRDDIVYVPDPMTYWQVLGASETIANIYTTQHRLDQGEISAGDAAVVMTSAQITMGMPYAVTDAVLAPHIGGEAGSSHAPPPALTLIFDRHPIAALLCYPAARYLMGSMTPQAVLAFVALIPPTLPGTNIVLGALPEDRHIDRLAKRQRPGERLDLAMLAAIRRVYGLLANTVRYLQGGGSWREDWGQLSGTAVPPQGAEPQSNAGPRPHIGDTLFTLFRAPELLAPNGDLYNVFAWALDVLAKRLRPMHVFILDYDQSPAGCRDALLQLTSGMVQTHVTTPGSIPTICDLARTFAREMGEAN
Nature of the data set: Western blot of DHFR-HSV-TK fusion protein in transduced colon cancer cells treated with antifolate. Format: cell-based. The procedure:
as §1, §2
Three colorectal cancer cells lines (HCT-8, HCT-116 and a cell line, C85, recently established from a patient with liver metastasis) were transduced with the SFG-DHFR/HSV-TK fusion vector of Example 1. Transduction was verified by PCR using transgene specific primers and elevation of DHFR-HSVTK mRNA and protein expression.

The test system of data set [5] is tumors derived from 8LT-CT cells. Nature of the data set: PET imaging of 124I-FIAU uptake in transduced tumors. The format is in vivo, rat. Particulars: three cycles of 10 mg/kg TMTX, three times daily for three days per cycle, 7 treated and 7 control rats. The procedure: In a second set of experiments, tumors derived from 8LT-CT and parental HCT-8 cells were evaluated by in vivo imaging. Before the imaging, each animal received three cycles of 10 mg/kg of TMTX, three times daily for three days per cycle. Using PET and the tracer ^124I-FIAU an increase in tumor-signal intensity in TMTX-treated rats was observed.

A further data set deals with DHFR-EGFP fusion protein. Nature of the data set: Fluorescence microscopy of EGFP expression in transfected GP+envAM12 cells. Format: cell-based.
The subject of data set [6] is DHFR-HSV1 TK fusion protein. The data set is described as follows: DHFR-HSV1 TK fusion protein level in tumor tissue of treated rats. Conditions: rats with flank tumors; 10 mg/kg once daily for three days or single 100 mg/kg; vs water-treated controls. Format: in vivo, rat. The procedure:
Rats bearing flank tumors were treated with 10 mg/kg of TMTX for three days (once daily), or with a single high dose of 100 mg/kg. The levels of DHFR-HSV1 TK fusion protein in the tumor tissue of antifolate treated rats, as well as in water-treated controls were analyzed. […] The mean increase was at least 2-fold.

Experimental for DHFR-EGFP fusion protein: Transfections of parental GP+envAM12 cells (Markowitz et al., Virology 167: 400-405 (1988)) with EGFP-containing SFG-plasmids was carried out using DOTAP transfecting reagent (N-{1-(2,3-dioleyloxy)propyl]-N,N,N,-trimethylammonium methyl sulfate, Roche Molecular Biochemicals). Cells transfected with EGFP-expressing vectors were cultrued for at least 12 days and subsequently sorted for EGFP-positive cells using an FACS Vantage SE cell sorter (Becton Dickinson). For fluorescence microscopy, these cells were grown in T25 flasks. Confluent cells were cultured in fresh media with or without TMTX. Fluorescent images of randomly selected areas of the monolayer were taken with a Zeiss Axlovert S100 microscope.

As for `Nc1nc(O)c2ncn(COC(CO)CO)c2n1` [GCV, gancyclovir], the “GCV cytotoxicity compared with parental cell line” value in data set [1] (116HT cells) was “higher”; in data set [1] (116LT cells) it was “moderate”. The “increase in sensitivity to GCV” value in data set [2] (transduced cells after cycles of nine day exposures to increasing TMTX, vs non-transduced cells) came out at 250 fold. Also, the “sensitivity to GCV” value in data set [2] (transduced cells compared to unselected or untransduced cells) is recorded as “increased sensitivity”. For the same molecule, in data set [3] (8HT cells), the GCV cytotoxicity entry is “GCV sensitivity”. Besides, in data set [3] (HCT-8 cells treated chronically with increasing concentrations of TMTX (8LT-CT)), the “increase in GCV sensitivity” value was determined as 250 fold.

In the case of `COc1cc([C@@H]2c3cc4c(cc3[C@@H](O[C@@H]3O[C@@H]5CO[C@@H](C)O[C@H]5[C@H](O)[C@H]3O)[C@H]3COC(=O)[C@H]23)OCO4)cc(OC)c1O` [etoposide], the “induction of the fusion protein” value in data set [4] (treatment of cells, concentration not given) is recorded as “did not cause induction”.

Turning to `COc1cc(NCc2ccc3nc(N)nc(N)c3c2C)cc(OC)c1OC` [TMTX, trimetrexate], the “124I-FIAU accumulation in transduced tumor tissue vs untreated controls” value in data set [5] was 2.6 fold. In data set [4] (concentration range 10^−2 to 1 μM), the “induction of expression of the DHFR-HSV1 TK fusion protein” value is reported as “dose-dependent”. Besides, the fusion protein levels entry in data set [4] (high concentrations (1000 μM), without an increase in mRNA) is reported as “transient increase in fusion protein levels”. Moreover, the “fusion protein expression (Western blot)” value in data set [4] (transduced colon cancer cells, TMTX 10, 100 and 1000 μM, anti-HSV-TK or anti-human DHFR antibody) is “upregulation of fusion protein expression was observed”. Also, in the data set on DHFR-EGFP fusion protein (DHFR-EGFP fusion vector, 1 μM, durable at 24 and 48 hours), the “expression of DHFR-EGFP fusion protein” value is “increased”. For the same molecule, the “expression of EGFP” value with DHFR-EGFP fusion protein (plasmids expressing DHFR and EGFP separated by IRES, or just EGFP) is “not increased”. Also, the figures for the “TMTX resistance compared with parental cell line” value in data set [1] (116HT cells) and in data set [1] (116LT cells) were “higher” and “moderate”, respectively. In addition, in data set [6], the “mean increase of DHFR-HSV1 TK fusion protein in tumor tissue” value is “at least 2 fold”. Besides, the TMTX cytotoxicity entry in data set [3] (8HT cells) is recorded as “TMTX resistance”.

These data come from patent US20060003936A1, “Method for modulating the production of a selected protein in vivo” (priority 2002, published 2006).
